In patent publication US8097610B2, “Derivative having PPAR agonistic activity” (Shionogi & Co., Ltd., priority 2005, dated 2012):

What was measured:
Type in all cases: cell-based
human PPARδ (hPPARδ) = biological target: T1, human PPARδ (hPPARδ) (Homo sapiens, UniProt Q03181); experiment: Test for transcriptional activity of PPARδ (GAL4 chimeric transcription factor reporter assay in CHO cells); settings: CHO cells transfected with GAL4-hPPARδ LBD and pG5luc reporter; 24 hours; luciferase activity; concentration showing 1/2 of maximum luciferase activity
T1 construct: δ: aa 139-C-end; α: aa 167-C-end; expressed in transfected cells; host or cells: CHO cells (transient transfection, FuGene)
T1 sequence (Q03181 139-441 limits assumed): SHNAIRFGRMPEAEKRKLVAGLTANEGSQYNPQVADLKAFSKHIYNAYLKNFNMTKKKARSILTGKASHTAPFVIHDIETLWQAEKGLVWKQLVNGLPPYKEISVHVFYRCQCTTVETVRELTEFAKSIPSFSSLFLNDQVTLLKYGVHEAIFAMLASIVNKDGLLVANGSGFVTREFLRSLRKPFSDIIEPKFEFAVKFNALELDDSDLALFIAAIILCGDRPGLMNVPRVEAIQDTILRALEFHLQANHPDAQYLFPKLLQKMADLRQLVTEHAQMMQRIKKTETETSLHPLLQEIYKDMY
Source text: (§1) A chimeric transcription factor assay, which is commonly used to detect nuclear receptor activity, was employed to measure PPAR transcriptional activity. Specifically, two plasmids, one that expresses the fusion protein of DNA binding domain of yeast transcription factor GAL4 and a ligand binding domain of a receptor, and a reporter plasmid were transiently transfected to CHO cells. The activity of the promoter containing a recognition sequence of GAL4 coded on the reporter plasmid was used as a parameter to estimate the activity of the receptor.
(§2) Plasmid: The ligand binding domain of human PPARδ (hPPARδ) or α(hPPARα) (δ: aa 139-C-end; α: aa 167-C-end) is obtained by PCR amplification using Human Universal Quick-Clone cDNA (CLONTECH). […] Then, each obtained cDNA fragment was subcloned into pBIND vector (Promega) to construct a plasmid expressing the fusion protein with DNA binding domain of yeast transcription factor GAL4. pG5luc vector (Promega) was used as a reporter plasmid.
(§3) Cell culturing and transfection: CHO cells were cultured in 10% FBS-aMEM. With a 96-well plate (Costar), CHO cells, that were dispersed with trypsin treatment, 20000 cells per well and the two plasmids obtained by the above procedure, 25 ng per well, were transfected with FuGene Reagent (Roche) by following the instruction of the manufacture.
(§4) Measurement of the transcriptional activity: CHO cells 100 μl per well, which were transfected as above, were dispensed into the wells in which a test compound dissolved in DMSO 0.5 μl was spotted in advance. After the cells and a test compound were cultured together for 24 hours in a CO2 incubator, the luciferase activity was measured by adding luciferase substrates, PicaGene LT2.0 (Toyo ink) 100 μl per well. LUMINOUS CT-9000D (DIA-IATRON) is used to measure the activity.

human PPARα (hPPARα) = biological target: T2, human PPARα (hPPARα) (Homo sapiens, UniProt Q07869); experiment: Test for transcriptional activity of PPARα (GAL4 chimeric transcription factor reporter assay in CHO cells); settings: CHO cells transfected with GAL4-hPPARα LBD and pG5luc reporter; 24 hours; luciferase activity
T2 construct: δ: aa 139-C-end; α: aa 167-C-end; expressed in transfected cells; host or cells: CHO cells (transient transfection, FuGene)
T2 sequence (Q07869 167-468 limits assumed): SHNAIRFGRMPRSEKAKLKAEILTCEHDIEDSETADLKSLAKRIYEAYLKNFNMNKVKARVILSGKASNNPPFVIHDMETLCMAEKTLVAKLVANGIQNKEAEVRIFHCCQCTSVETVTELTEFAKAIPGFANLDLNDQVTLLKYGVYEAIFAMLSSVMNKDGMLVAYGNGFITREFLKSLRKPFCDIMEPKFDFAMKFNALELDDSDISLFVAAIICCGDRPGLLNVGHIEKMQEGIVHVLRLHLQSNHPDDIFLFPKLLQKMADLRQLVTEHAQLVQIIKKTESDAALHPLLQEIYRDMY
Source text: as §1, §2, §3, §4

hPPARγ = biological target: T3, hPPARγ (Homo sapiens, UniProt P37231); experiment: Transcriptional activity of PPARγ (Table 9; chimeric transcription factor assay)
T3 construct: expressed in transfected cells
T3 sequence (P37231 238-503 limits assumed): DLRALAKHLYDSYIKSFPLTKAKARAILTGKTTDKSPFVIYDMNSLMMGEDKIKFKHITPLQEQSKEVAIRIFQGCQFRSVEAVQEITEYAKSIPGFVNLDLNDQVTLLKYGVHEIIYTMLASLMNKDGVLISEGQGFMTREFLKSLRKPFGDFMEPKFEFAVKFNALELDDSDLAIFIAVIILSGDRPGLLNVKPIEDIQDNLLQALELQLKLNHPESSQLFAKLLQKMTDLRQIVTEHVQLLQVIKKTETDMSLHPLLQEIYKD
Source text: as §1, with “receptor. Cell culturing and transfection: CHO cells were cultured in 10% FBS-aMEM. With a 96-well plate (Costar), CHO cells, that were dispersed with trypsin treatment, 20000 cells per well and the two plasmids obtained by the above procedure, 25 ng per well, were transfected with FuGene Reagent (Roche) by following the instruction of the manufacture. […] LUMINOUS […]) is used to measure the activity.” for “receptor.”

Row | Compound | EC50 (human PPARδ (hPPARδ)) [µM] | EC50 (human PPARα (hPPARα)) [µM] | EC50 (hPPARγ) [µM]
1 | C[C@@H]1CN(c2nc3ccc(Cl)cc3s2)C[C@H](C)N1CCOc1ccc(Cl)c(CC(=O)O)c1 [Example 699] | 0.041 | 1 | 0.76
2 | O=C(O)Cc1ccc(CN2CCCN(c3nc4ccc(Cl)cc4s3)CC2)s1 [Example 503] | 0.91 | 1.5 | > 10
3 | CCCCN(Cc1cccc(CC(=O)O)c1)C1CCN(c2nc3ccc(Cl)cc3s2)C1 (stereo not drawn) [Example 612, [3-[[butyl[1-(6-chlorobenzothiazole-2-yl)pyrrolidine-3-yl]amino]methyl]phenyl]acetic acid] | 0.049 | 0.57 | 2.2
4 | C[C@@H]1CN(C2(CCOc3cc(Cl)cc(CC(=O)O)c3)CCN(c3nc4ccc(Cl)cc4s3)CC2)C[C@H](C)O1 [Example 652] | 0.28 | > 10 | > 10
5 | COc1ccc(CC(=O)O)cc1OCC1CCN(c2nc3ccc(Cl)cc3s2)CC1 [Example 519] | 0.02 | 0.54 | 0.8

Continued by falling EC50 (human PPARδ (hPPARδ)), values first:

Row | EC50 (human PPARδ (hPPARδ)) [µM] | EC50 (human PPARα (hPPARα)) [µM] | EC50 (hPPARγ) [µM] | Compound
6 | 0.029 | > 10 | 1.9 | CNc1cccc(-c2cnc(N3CCN(CCOc4cc(CC(=O)O)ccc4Cl)[C@@H](C)C3)s2)c1 [Example 562]
7 | 0.026 | > 10 | > 10 | Cc1cc(CN2C[C@@H](C)N(c3nc4ccc(C(F)(F)F)cc4s3)[C@@H](C)C2)cc(OCC(=O)O)c1 [Example 590]
8 | 0.023 | 2.6 | 4.2 | O=C(O)Cc1cccc(OCCN(C2CCCCC2)C2CCN(c3nc4ccc(Cl)cc4s3)C2)c1 (stereo not drawn) [Example 630]
9 | 0.019 | 2.5 | 3.3 | C[C@@H]1CN(c2ccc(C(F)(F)F)cn2)C[C@H](C)N1CCOc1cc(CC(=O)O)ccc1Cl [Example 707]
10 | 0.013 | 0.96 | 0.58 | C[C@H]1CN(c2nc3ccc(Cl)cc3s2)CCN1CCOc1cc(Cl)cc(CC(=O)O)c1 [Example 679]
11 | 0.0045 | 0.35 | 0.2 | Cc1cc(CC(=O)O)cc(CN2CCN(c3nc4ccc(C(F)(F)F)cc4s3)[C@@H](CC(C)C)C2)c1 [Example 474]
12 | 0.0044 | > 10 | > 10 | CCCC[C@@H]1CN(Cc2cc(C)cc(OCC(=O)O)c2)CCN1c1nc2ccc(OC(F)(F)F)cc2s1 [Example 854, [3-[(R)-3-butyl-4-(6-trifluoromethoxybenzothiazole-2-yl)-piperazine-1-ylmethyl]-5-methylphenoxy]acetic acid]
